According to patent publication US4424218A, “Novel 3 α-amino steroids” (Roussel Uclaf, priority 1979, dated 1984):
Where a name gives a salt, the structure may show the parent alone. Read-outs that look alike come from different tables or passages of the source.

Assays:
anaphylactic shock = test: Adjuvant for anaphylactic shock (beef seric albumin); assay type: in vivo, mice; conditions: intraplantary, admixed with antigen; antigen intravenously 8 days later
Description: C. Adjuvant for anaphylactic shock
The administration to animals of a compound capable of stimulating the activity of immunitary systems leads to an increase in response to administration of antigen to which the animal is sensitive. Male mice weighing between 30 to 35 g were sensitized by intraplantary administration of beef seric albumin. 8 days later, the mice received intraveinously an antigen and under the minimum sensibilization conditions, the control animals were not in mortal shock at the time of the last administration.
The active dose which provoked a mortality equal to or greater than 50% of the animals was determined and the results are reported in Table I.

mice = test: Acute toxicity; assay type: in vivo; conditions: orally
[1] = test system: rosettes to sheep red corpuscles; test: Test of Rosettes to sheep red corpuscles; assay type: in vivo, rats; conditions: Rattus norvegicus, po, 24 h, read-out: immunostimulating dose which multiplied by 2 the percentage of rosettes observed in the control animals
Description: D. Test of Rosettes to sheep red corpuscles
The administration to animals of a product capable of stimulating the immunitary systems leads to an increase of their capacity of reaction to the injection of an immunogenic product. 3 month old male rats were sensibilized by intraperitoneal administration of sheep erythrocytoes on day 0 and 7 days later, the spleen was removed and splenocytes were placed in contact with sheep erythrocytes. The percentage of leucocytes around the erythrocytes in the form of rosettes was determined. The test compounds were orally administered daily from day-1 to day 1 and immunostimulating dose is the dose of product which multiplied by 2 the percentage of rosettes observed in the control animals and the results are reported in Table II.

IgE production = test: Potentialization of IgE production (passive cutaneous anaphylaxia test); assay type: in vivo, mice; conditions: for minimal effective dose: Mus musculus, sc, read-out: active dose, potentialization of IgE production
Method: A. Potentialization of IgE production
Female mice weighing between 28 to 30 g were immunized by subcutaneous administration of an ovalbumin-alumina mixture on days 0 and 14 and serum was taken on the 21st day for dosage of IgE antibodies formed. The respective quantities of antigen (ovalbumin) and adjuvant (alumina) injected was selected so as to keep production of antibodies at a minimum. The test compounds were administered subcutaneously 3 hours before the first immunization.
The research of the larger dilution of serum which gives a spot of a 11 to 13 mm diameter for each animal is made. An adequate dilution of serum was injected intradermally with a volume of 0.1 ml in male rats weighing about 250 g in the region of the back. 48 hours later, the animals received veinously 0.5 ml of a solution of 0.5% of ovalbumin and 1% of Evans blue in an isotonic solution of sodium chloride. 30 minutes after this injection, the animals were killed by exsanguination and the diameter of the blue spot on turned over skin is measured.

secondary arthritis = test: Adjuvant for chronic arthritis (Freund type adjuvant); assay type: in vivo, rat; conditions: for ED50: Rattus norvegicus, read-out: active dose which diminished the secondary inflammation by at least 50%
Method: B. Adjuvant for chronic arthritis
The injection of a Freund type adjuvant (Mycobacterium butyricum at 6 mg/ml in Bayol 55) into the posterium paw of a rat provokes a primary inflammatory lesion and then after a latency period of 13 to 15 days, initiation of secondary inflammation affecting the other non-injected rear paw as well as the front paws, the ears and the tail.
Male rats aged 42 to 50 days received an intraplantary injection of 0.10 ml of Freund adjuvant and treatment started the day of the adjuvant injection and continued until the animals were killed on the 17th day. […] In this test, the effect on secondary inflammations was essentially observed, it was determined by the arthritis of the non-injected rear paw, arthritis of the front paws and the inflammation of the ears and tail.

[2] = orally, daily from day -1 to day 1

| SMILES | active dose which provoked a mortality equal to or greater than 50% of the animals (anaphylactic shock) | DL0 (lethal dose LD0, maximum dose which did not cause any mortality after 8 days) (mice) | ED (2-fold rosettes) [1, 2] | also measured |
| --- | --- | --- | --- | --- |
| C[C@H](O)[C@H]1CC[C@H]2[C@@H]3CC[C@H]4C[C@H](NC(=O)[C@@H](N)Cc5ccccc5)CC[C@]4(C)[C@H]3CC[C@]12C [Example 5] | 5 mg per animal | ≥ 400 mg/kg | – | – |
| C[C@H](O)[C@H]1CC[C@H]2[C@@H]3CC[C@H]4C[C@H](NC(=O)CNC(=O)CN)CC[C@]4(C)[C@H]3CC[C@]12C [Example 8] | 1 mg per animal | ≥ 400 mg/kg | – | – |
| CCOC(=O)N[C@@H]1CC[C@@]2(C)[C@@H](CC[C@@H]3[C@@H]2CC[C@]2(C)[C@@H]([C@H](C)O)CC[C@@H]32)C1 [Example 14, Ethyl N-[(20S)5α-pregnane-20-ol-3α-yl]-carbamate] | 5 mg per animal | ≥ 400 mg/kg | – | – |
| C[C@H](O)[C@H]1CC[C@H]2[C@@H]3CC[C@H]4C[C@H](NC(=O)[C@@H]5CCCN5)CC[C@]4(C)[C@H]3CC[C@]12C [Example 7] | 2 mg per animal | ≥ 800 mg/kg | > 5 mg/kg | – |
| C[C@H](O)[C@H]1CC[C@H]2[C@@H]3CC[C@H]4C[C@H](N(C)C(=O)CN)CC[C@]4(C)[C@H]3CC[C@]12C.Cl [Example 15, 2-amino-N-[(20S) 5α-pregnane-20-ol-3α-yl]-N-methyl-acetamide hydrochloride] | 0.5 mg per animal | ≥ 200 mg/kg | – | ED (2-fold rosettes) [1]: 10 mg/kg |
| C[C@H](O)[C@H]1CC[C@H]2[C@@H]3CC[C@H]4C[C@H](NC(=O)CN)CC[C@]4(C)[C@H]3CC[C@]12C.Cl [Product A, (20S) 3α-[(aminoacetyl)-amino]-5α-pregnane-20-ol hydrochloride] | – | – | – | minimal effective dose (IgE production): 0.5 mg/kg; immunostimulating activity in IgE test (in words) (IgE production; subcutaneous, compared with Levamisole): greater immunostimulating activity than Levamisole; ED50 (secondary arthritis; sc): 1 mg/kg; activity against secondary phenomena of arthritis of adjuvant (in words) (secondary arthritis; subcutaneously, compared with Levamisole): very active against secondary phenomena of arthritis of adjuvant |
| C[C@H](O)[C@H]1CC[C@H]2[C@@H]3CC[C@H]4C[C@H](NC(=O)[C@@H](N)CO)CC[C@]4(C)[C@H]3CC[C@]12C [Example 4] | – | ≥ 400 mg/kg | – | – |
| C[C@H](N)C(=O)N[C@@H]1CC[C@@]2(C)[C@@H](CC[C@@H]3[C@@H]2CC[C@]2(C)[C@@H]([C@H](C)O)CC[C@@H]32)C1 [Example 2, (2S) 2-amino-N-[(20S)-5α-pregnan-20-ol-3α-yl]-propanamide] | 0.5 mg per animal | 200 mg/kg | 1 mg/kg | – |
| C[C@H](O)[C@H]1CC[C@H]2[C@@H]3CC[C@H]4C[C@H](NC(=O)[C@@H](N)Cc5c[nH]c6ccccc56)CC[C@]4(C)[C@H]3CC[C@]12C [Example 6, (2S) 2-amino-N-[(20S) 5α-pregnane-20-ol-3α-yl]-1H-indol-3-propanamide] | 5 mg per animal | ≥ 1000 mg/kg | 2 mg/kg | – |
| C[C@H](O)[C@H]1CC[C@H]2[C@@H]3CC[C@H]4C[C@H](NC(=O)CN)CC[C@@H]4[C@H]3CC[C@]12C [Example 11, 2-amino-N-[(20S) 19-nor-5α-pregnane-20-ol-3α-yl]-acetamide hydrochloride] | 0.5 mg per animal | ≥ 400 mg/kg | 5 mg/kg | – |
| c1ccc([C@H]2CN3CCSC3=N2)cc1 [Levamisole, reference compound] | – | – | – | minimal effective dose (IgE production; subcutaneous, 3 hours before first immunization, ovalbumin-alumina): 20 mg/kg; ED50 (secondary arthritis; po, orally, treatment from day of adjuvant injection to 17th day): 50 mg/kg |
| CC(=O)[C@@]1(O)CC[C@H]2[C@@H]3CC[C@H]4C[C@H](NC(=O)CN)CC[C@]4(C)[C@H]3CC[C@@]21C [Example 12, 2-amino-N-[(5α-pregnane-17α-ol-20-one-3α-yl]-acetamide hydrochloride] | – | – | 5 mg/kg | – |
| C[C@H](O)[C@H]1CC[C@H]2[C@@H]3CC[C@H]4C[C@H](NC(=O)c5cccnc5)CC[C@]4(C)[C@H]3CC[C@]12C [Example 9, N-[(20S)5α-pregnan-20-ol-3α-yl]-3-pyridinecarboxamide] | 5 mg per animal | – | 5 mg/kg | – |
| C[C@H](O)[C@@]1(O)CC[C@H]2[C@@H]3CC[C@H]4C[C@H](NC(=O)CN)CC[C@]4(C)[C@H]3CC[C@@]21C [Example 10, 2-amino-N-[(20S) 5α-pregnane-17α,20-diol-3α-yl]-acetamide hydrochloride] | 1 mg per animal | ≥ 600 mg/kg | – | – |
| C[C@H](O)[C@H]1CC[C@H]2[C@@H]3CC[C@H]4C[C@H](NC(=O)[C@@H](N)CCC(=O)O)CC[C@]4(C)[C@H]3CC[C@]12C [Example 3] | ≤ 1 mg per animal | ≥ 400 mg/kg | – | – |
